This passage reports CC50 results from US20160192658A1 (priority 2013, published 2016).

A short description of the series: in vitro. The settings on record: human.

As to `NC(=O)c1ncn([C@@H]2O[C@H](CO)[C@@H](O)[C@H]2O)n1` [Ribavirin, ribavirin], the CC50 at 5 days was > 200 µM.
